Source: patent US8628767B2, “Purine nucleoside phosphorylase as enzymatic activator of nucleoside prodrugs” (priority 2008, dated 2014)
Read-outs that look alike come from different tables or passages of the source.

B1: tm-PNP: tailed mutant E. coli PNP, 30 amino acid tail in place of the terminal glutamic acid (SEQ ID NO: 8) (protein, listed as Trichomonas vaginalis)
chain: MATPHINAEMGDFADVVLMPGDPLRAKYIAETFLEDAREVNNVRGMLGFTGTYKGRKISVMGHGMGIPSCSIYTKELITDFGVKKIIRVGSCGAVLPHVKLRDVVIGMGACTDSKVNRIRFKDHDFAAIADFDMVRNAVDAAKALGIDARVGNLFSADLFYSPDGEMFDVMEKYGILGVEMEAAGIYGVAAEFGAKALTICTVSDHIRTHEQTTAAERQTTFNDMIKIALESVLLGDKGKRPRGSSRVDLQACKLGIFVKEPYFCGVT
B2: human PNP: human purine nucleoside phosphorylase (protein, UniProt P00491 1-289, looked up)
Purine nucleoside …: MENGYTYEDYKNTAEWLLSHTKHRPQVAIICGSGLGGLTDKLTQAQIFDYGEIPNFPRSTVPGHAGRLVFGFLNGRACVMMQGRFHMYEGYPLWKVTFPVRVFHLLGVDTLVVTNAAGGLNPKFEVGDIMLIRDHINLPGFSGQNPLRGPNDERFGDRFPAMSDAYDRTMRQRALSTWKQMGEQRELQEGTYVMVAGPSFETVAECRVLQKLGADAVGMSTVPEVIVARHCGLRVFGFSLITNKVIMDYESLEKANHEEVLAAGKQAAQKLEQFVSILMASIPLPDKAS
B3: T. vaginalis PNP: wild-type Trichomonas vaginalis purine nucleoside phosphorylase, amino acid sequence SEQ ID NO: 5 (protein, listed as Trichomonas vaginalis)
chain: MATPHNSAQVGDFAETVLMCGDPLRAKLIAETYLENPKLVNNVRGIQGYTGTYKGKPISVMGHGMGLPSICIYAEELYSTYKVKTIIRVGTCGAIDMDIHTRDIVIFTSAGTNSKINRIRFMDHDYPATASFDVVCALVDAAKELNIPAKVGKGFSTDLFYNPQTELAQLMNKFHFLAVEMESAGLFPIADLYGARAGCICTVSDHILHHEETTAEERQNSFQNMMKIALEAAIKL

What was measured:
[1] = system: T. vaginalis PNP; assay: Substrate cleavage by wild-type Tv-PNP (HPLC); format: biochemical, Trichomonas vaginalis; conditions: for rate of enzymatic cleavage by T. vaginalis PNP: 100 micromolar substrate, HPLC separation of base from nucleoside
Description: (§1) The method quantitatively measures the cleavage of substrates in vitro. The purine analog nucleosides (0.1 mM in 500 μl of 100 mM HEPES, pH 7.4, 50 mM potassium phosphate) are combined with 100 μg/ml Tv-PNP or wild-type E. coli PNP. The reaction mixtures are incubated at 25° C. for 1 hour, and the reactions stopped by boiling each sample for 2 minutes. Protein concentration and time of assay are varied depending on activity of enzyme for a particular substrate. Each sample is analyzed by reverse phase HPLC to measure conversion from substrate to product. The nucleoside and purine analogs are eluted from a Spherisorb ODSI (5 μm) column (Keystone Scientific, Inc., State College, Pa.) with a solvent containing 50 mM ammonium dihydrogen phosphate (95%) and acetonitrile (5%). Products are detected by absorbance at 254 nm, and are identified by comparing their retention times and absorption spectra with authentic control samples.
Numerous compounds are tested for efficiency as substrate for Tv-PNP in parallel comparison with E. coli PNP. The compounds include various analogs of adenosine, of inosine, of MeP-dR, and of fluoro- or chloro-substituted adenosine. The enzymes are incubated with 100 micromolar of each compound listed in the table and the rate of enzymatic cleavage is determined by HPLC separation of the base from the nucleoside. […] It is appreciated that the greater biological activity of the Tv-PNP enzyme allows for greater activity in impairing abnormal cell growth when the Tv-PNP is used for treatment of pathological conditions using F-araA as a prodrug substrate.

[2] = Tolerated dose of MeP-dR in mice; format: in vivo
From the text: The formula of Freidenreich et al., Cancer Chemother. Rep., 50:219-244, (1966) is optionally used to determine the maximum tolerated dose of substrate for a human subject. […] This amount or slightly less is expected to maximize tumor cell killing in humans without killing the subject thereby generating a favorable efficacy to safety profile. This standard of effectiveness is accepted in the field of cancer therapy. More preferably, a drug levels administered range from about 10% to 1% of the maximum tolerated dosage (for example, 7.5 mg/m^2-0.75 mg/m^2). It is understood that modes of administration that permit the substrate to remain localized at or near the site of the tumor will be effective at lower doses than systemically administered substrates.

[3] = molecular target: E. coli PNP (Escherichia coli, UniProt P0ABP8); assay: Substrate cleavage by wild-type E. coli PNP (HPLC); format: biochemical; conditions: 100 micromolar substrate, HPLC separation of base from nucleoside
Description: as §1
Numerous compounds are tested for efficiency as substrate for Tv-PNP in parallel comparison with E. coli PNP. […] The enzymes are incubated with 100 micromolar of each compound listed in the table and the rate of enzymatic cleavage is determined by HPLC separation of the base from the nucleoside.

[4] = system: tumor expressing wild-type E. coli PNP enzyme; conditions: cited from earlier work
[5] = system: T. vaginalis PNP; conditions: Wang et al.; cited from earlier work
[6] = system: tumors; assay: In vivo efficacy experiments, tm-PNP versus M65V
[7] = Cleavage of MeP-dR by PNPs of various origins (HPLC); format: biochemical; conditions: 100 μM MeP-dR, enzymes of various purities
[8] = Cleavage of F-araA by PNPs of various origins (HPLC); format: biochemical; conditions: for F-araA rate of cleavage: 100 μM F-araA, enzymes of various purities
[9] = equimolar quantities of substrate

Chain of E. coli PNP (P0ABP8 whole entry): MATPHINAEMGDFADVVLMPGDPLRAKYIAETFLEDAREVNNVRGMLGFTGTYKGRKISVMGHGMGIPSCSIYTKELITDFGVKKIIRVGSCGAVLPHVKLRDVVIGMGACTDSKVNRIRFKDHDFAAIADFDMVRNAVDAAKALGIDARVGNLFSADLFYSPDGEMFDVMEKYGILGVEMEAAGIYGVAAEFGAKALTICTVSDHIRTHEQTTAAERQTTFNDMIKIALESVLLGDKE

Molecule	rate of enzymatic cleavage by T. vaginalis PNP [1]	rate of enzymatic cleavage by E. coli PNP [3]	MeP-dR rate of cleavage [7]	F-araA rate of cleavage [8]	MeP-dR/F-araA cleavage ratio [8, 9]	other results
Cc1ncnc2c1ncn2[C@H]1C[C@H](O)[C@@H](CO)O1 [9-(2-deoxy-β-D-ribofuranosyl]-6-methylpurine]	484,000 nanomoles per milligrams per hour	528,000 nanomoles per milligrams per hour	–	–	–	toxicity ([2]; mice, systemic, 25 mg per kg per day for 9 days (9 doses total)): some toxicity but no lethality; human dosage (maximum tolerated dose) by formula of Freidenreich et al. ([2]; mouse, in vivo, 25 mg/kg): 75 mg/m^2
Nc1nc(F)nc2c1ncn2[C@@H]1O[C@H](CO)[C@@H](O)[C@@H]1O [9-(β-D-arabinofuranosyl)-2-fluoroadenine, reference compound]	32,000 nanomoles per milligrams per hour	1,250 nanomoles per milligrams per hour	–	–	–	cleavage rate by Tv-PNP relative to E. coli PNP ([1]; Tv-PNP rate / E. coli PNP rate): approximately 23 times; catalytic efficiency of Tv-PNP relative to E. coli PNP ([1]; Vmax/Km ratio): 25 fold; activity of Tv-PNP as compared to wild-type E. coli PNP ([1]; summary of Table 1): more activity; tumor response [4]: complete responses; activity of Tv-PNP towards substrate, conventional understanding [5]: does not have appreciable activity
B1	–	–	948 nmol/mg/h	4.8 nmol/mg/h	–	antitumoral activity relative to M65V [6]: considerably greater antitumoral activity; MeP-dR/F-araA cleavage ratio [8]: 198; selectivity of cleavage of F-araA relative to wild-type E. coli PNP ([8]; from MeP-dR/F-araA ratios 198 vs 422): 2.3 fold
B2	–	–	35 nmol/mg/h	<1 nmol/mg/h	>35	–
B3	–	–	536,000 nmoles/mg/hr	30,000 nmoles/mg/hr	18	–
